From publication PMC11172384, “Specific Mutations Reverse Regulatory Effects of Adenosine Phosphates and Increase Their Binding Stoichiometry in CBS Domain-Containing Pyrophosphatase” (International Journal of Molecular Sciences, 2024) come the findings set out here.

Test [1] addresses T1, dhPPase (Desulfitobacterium hafniense CBS-PPase) (Desulfitobacterium hafniense, UniProt B8FP42, K100A).
T1 construct: gene Dhaf_1515; full-length, tag-less, recombinant in E. coli BL21 (pET-42b); homotetramer
As to the kind of experiment: isothermal titration calorimetry, single-binding-site model. The following applies: read-out: KN. The text has this:
(§1) isothermal titration calorimetry, single-binding-site model on dhPPase (Desulfitobacterium hafniense CBS-PPase)

In test [2] the target is T2, dhPPase (Desulfitobacterium hafniense CBS-PPase) (Desulfitobacterium hafniense, UniProt B8FP42, E126A).
T2 construct: gene Dhaf_1515; full-length, tag-less, recombinant in E. coli BL21 (pET-42b); homotetramer
The test is described as above. To be noted: read-out: KN.
Text: as §1

The target in test [3] is T3, dhPPase (Desulfitobacterium hafniense CBS-PPase) (Desulfitobacterium hafniense, UniProt B8FP42).
T3 construct: gene Dhaf_1515; full-length, tag-less, recombinant in E. coli BL21 (pET-42b); homotetramer
T3 sequence (B8FP42 1-544): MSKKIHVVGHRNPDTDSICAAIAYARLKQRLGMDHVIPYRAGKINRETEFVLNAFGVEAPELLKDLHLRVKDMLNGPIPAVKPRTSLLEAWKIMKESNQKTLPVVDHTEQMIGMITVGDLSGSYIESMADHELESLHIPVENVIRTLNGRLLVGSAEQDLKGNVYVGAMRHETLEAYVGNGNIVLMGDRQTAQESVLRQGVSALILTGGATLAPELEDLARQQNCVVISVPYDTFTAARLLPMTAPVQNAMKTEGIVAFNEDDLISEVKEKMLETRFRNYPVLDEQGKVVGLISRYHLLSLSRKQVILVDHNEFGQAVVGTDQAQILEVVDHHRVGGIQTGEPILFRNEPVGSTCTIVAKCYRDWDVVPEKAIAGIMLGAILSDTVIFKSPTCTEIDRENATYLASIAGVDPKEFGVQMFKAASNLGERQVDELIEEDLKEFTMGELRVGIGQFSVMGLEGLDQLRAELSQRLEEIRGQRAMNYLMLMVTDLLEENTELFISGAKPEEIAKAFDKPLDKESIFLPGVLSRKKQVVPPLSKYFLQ
The test is described as above. The following applies: read-out: KN.
Text: as §1

Test [4] concerns the target T4, dhPPase (Desulfitobacterium hafniense CBS-PPase) (Desulfitobacterium hafniense, UniProt B8FP42, G118M).
T4 construct: gene Dhaf_1515; full-length, tag-less, recombinant in E. coli BL21 (pET-42b); homotetramer
The test is described as follows: activation of PPi hydrolysis, continuous Pi assay, Hill fit. Format: biochemical. To be noted: read-out: Adenosine Phosphate and Parameter Value ^a / Ap4A / K. The text has this:
(§2) activation of PPi hydrolysis, continuous Pi assay, Hill fit on dhPPase (Desulfitobacterium hafniense CBS-PPase)

Test [5] deals with T1, dhPPase (Desulfitobacterium hafniense CBS-PPase). The description is as above. Format: biochemical. The following applies: read-out: Adenosine Phosphate and Parameter Value ^a / Ap4A / K.
Text: as §2

Test [6] has as its target T5, dhPPase (Desulfitobacterium hafniense CBS-PPase) (Desulfitobacterium hafniense, UniProt B8FP42, V117T).
T5 construct: gene Dhaf_1515; full-length, tag-less, recombinant in E. coli BL21 (pET-42b); homotetramer
The test is described as above. Format: biochemical. The following applies: read-out: Adenosine Phosphate and Parameter Value ^a / Ap4A / K.
Text: as §2

Test [7] has as its target T6, dhPPase (Desulfitobacterium hafniense CBS-PPase) (Desulfitobacterium hafniense, UniProt B8FP42, V117A).
T6 construct: gene Dhaf_1515; full-length, tag-less, recombinant in E. coli BL21 (pET-42b); homotetramer
Described as above. Format: biochemical. The following applies: read-out: Adenosine Phosphate and Parameter Value ^a / Ap4A / K.
Text: as §2

Test [8] addresses T7, dhPPase (Desulfitobacterium hafniense CBS-PPase) (Desulfitobacterium hafniense, UniProt B8FP42, K95A).
T7 construct: gene Dhaf_1515; full-length, tag-less, recombinant in E. coli BL21 (pET-42b); homotetramer
As to the kind of experiment: isothermal titration calorimetry, single-binding-site model. To be noted: read-out: KN.
Text: as §1
(In general: In ITC the heat of successive injections is recorded.)

Test [9] has as its target T4, dhPPase (Desulfitobacterium hafniense CBS-PPase). The description is as above. To be noted: read-out: KN.
Text: as §1

Test [10] addresses T8, dhPPase (Desulfitobacterium hafniense CBS-PPase) (Desulfitobacterium hafniense, UniProt B8FP42, G118A).
T8 construct: gene Dhaf_1515; full-length, tag-less, recombinant in E. coli BL21 (pET-42b); homotetramer
The description is as above. To be noted: read-out: KN.
Text: as §1

The target of test [11] is T3, dhPPase (Desulfitobacterium hafniense CBS-PPase). The test is described as follows: continuous Pi assay. Format: biochemical. To be noted: pH 7.2, 25 °C, 5.23 mM MgCl2, 140 µM PPi.

T1 sequence (B8FP42 entry or part of it K100A): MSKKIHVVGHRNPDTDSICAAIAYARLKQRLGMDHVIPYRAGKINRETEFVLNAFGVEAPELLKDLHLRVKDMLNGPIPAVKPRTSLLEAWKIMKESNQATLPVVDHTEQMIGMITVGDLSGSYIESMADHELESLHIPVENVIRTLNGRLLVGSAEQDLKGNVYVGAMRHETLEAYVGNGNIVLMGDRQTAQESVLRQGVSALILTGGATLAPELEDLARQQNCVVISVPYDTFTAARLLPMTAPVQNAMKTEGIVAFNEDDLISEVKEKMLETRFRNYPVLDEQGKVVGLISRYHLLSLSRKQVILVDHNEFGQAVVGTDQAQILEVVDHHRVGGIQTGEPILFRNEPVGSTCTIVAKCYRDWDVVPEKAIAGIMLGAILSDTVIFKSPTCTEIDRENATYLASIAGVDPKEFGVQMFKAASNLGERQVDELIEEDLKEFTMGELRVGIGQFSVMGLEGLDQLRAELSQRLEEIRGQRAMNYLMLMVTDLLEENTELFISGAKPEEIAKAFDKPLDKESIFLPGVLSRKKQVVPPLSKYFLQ
T4 sequence (B8FP42 entry or part of it G118M): as the sequence (B8FP42 entry or part of it K100A) above, with A100K, G118M counted along it
T6 sequence (B8FP42 entry or part of it V117A): as the sequence (B8FP42 entry or part of it K100A) above, with A100K, V117A counted along it
T5 sequence (B8FP42 entry or part of it V117T): as the sequence (B8FP42 entry or part of it K100A) above, with A100K, V117T counted along it
T2 sequence (B8FP42 entry or part of it E126A): as the sequence (B8FP42 entry or part of it K100A) above, with A100K, E126A counted along it
T8 sequence (B8FP42 entry or part of it G118A): as the sequence (B8FP42 entry or part of it K100A) above, with A100K, G118A counted along it
T7 sequence (B8FP42 entry or part of it K95A): as the sequence (B8FP42 entry or part of it K100A) above, with K95A, A100K counted along it

For the compound `Nc1ncnc2c1ncn2[C@@H]1O[C@H](COP(=O)(O)OP(=O)(O)O)[C@@H](O)[C@H]1O` [ADP], the Kd amounted to 6000 ± 2000 nM in [1], 600 ± 100 nM in test [2] and 1000 ± 200 nM in test [3].
In the case of `Nc1ncnc2c1ncn2[C@@H]1O[C@H](COP(=O)(O)OP(=O)(O)OP(=O)(O)OP(=O)(O)OC[C@H]2O[C@@H](n3cnc4c(N)ncnc43)[C@H](O)[C@@H]2O)[C@@H](O)[C@H]1O` [Ap4A], the EC50 in test [4] turned out to be 28 ± 1 nM; in test [5] it was 11.5 ± 0.1 nM; in [6], 1.3 ± 0.05 nM; in test [7], 120 ± 10 nM.
On to `Nc1ncnc2c1ncn2[C@@H]1O[C@H](COP(=O)(O)O)[C@@H](O)[C@H]1O` [AMP], for which the Kd amounted to 4600 ± 700 nM in test [8]; 520 ± 70 nM in test [9]; 4200 ± 600 nM in test [10]; 1300 ± 200 nM in test [1]; 800 ± 300 nM in test [3].
Regarding `O=P(O)(O)OP(=O)(O)O` [PPi], the “continuous Pi assay” value in test [11] is on record as “The initial rates of PPi hydrolysis were measured using a continuous Pi assay”.
`Nc1ncnc2c1ncn2[C@@H]1O[C@H](COP(=O)(O)OP(=O)(O)OP(=O)(O)O)[C@@H](O)[C@H]1O` [ATP]: in test [3], the Kd stood at 2100 ± 300 nM.
